Measurements: paper PMC3966885, “F9 Fimbriae of Uropathogenic Escherichia coli Are Expressed at Low Temperature and Recognise Galβ1-3GlcNAc-Containing Glycans” (PLoS ONE, 2014)

Molecular target: T1, F9 fimbriae (F9 adhesin) (Escherichia coli, UniProt A0A0H2V7F6)
T1 construct: gene ydeQ; whole F9 fimbriae (six-gene operon c1931-c1936, plasmid pF9, ara promoter) over-expressed on GFP-labelled E. coli K-12 MG1655fim (MS428); mature adhesin 280 aa, N-terminal lectin domain 160 aa
Experiment: glycan array with whole GFP-labelled F9 over-expressing E. coli
Format: cell-based
Details: glycan printed on super epoxy slide; PBS with 2 mM MgCl2 and CaCl2, room temperature; also used free at 50 μM as competitor

T1 sequence (A0A0H2V7F6 entry or part of it): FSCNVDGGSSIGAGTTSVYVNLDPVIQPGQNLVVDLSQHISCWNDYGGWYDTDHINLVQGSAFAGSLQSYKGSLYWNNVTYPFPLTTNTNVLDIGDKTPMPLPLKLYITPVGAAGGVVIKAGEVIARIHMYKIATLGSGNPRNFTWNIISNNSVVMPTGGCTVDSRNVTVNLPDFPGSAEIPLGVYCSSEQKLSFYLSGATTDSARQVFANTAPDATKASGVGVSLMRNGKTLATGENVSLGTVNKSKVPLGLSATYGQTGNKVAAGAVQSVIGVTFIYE

## CC(=O)N[C@H]1[C@H](O[C@H]2[C@@H](O)[C@@H](CO)O[C@@H](O[C@H]3[C@H](O)[C@@H](O)C(O)O[C@@H]3CO)[C@@H]2O)O[C@H](CO)[C@@H](O)[C@@H]1O[C@@H]1O[C@H](CO)[C@H](O)[C@H](O)[C@H]1O (stereo partly shown) [lacto-N-tetraose, Galβ1-3GlcNAcβ1-3Galβ1-4Glc]
  glycan array with whole GFP-labelled F9 over-expressing E. coli: Of the glycans that were bound by F9 fimbriae, lacto-N-tetraose displayed the highest affinity
